Results from US20160038411A1, “PULSATILE GASTRIC RETENTIVE DOSAGE FORMS” (Depomed, Inc., priority 2007, published 2016).
Like-named read-outs stand apart in the source and are kept apart here. Values belong to the compound of their own block, whether it stands above or below them.

Assays:
[1] = test system: nocturnal heartburn; details: cited from earlier work
[2] = Four-way crossover pharmacokinetic study of omeprazole (limited colonic absorption); format: in vivo; details: human, plasma, 20 mg; for AUC: mean±SD
Excerpt: Nine healthy subjects were entered into the study with an intention to complete treatment of at least six subjects. […] A period of at least four days for washout was allowed between dosing.

[3] = Two-period crossover study in GERD patients: plasma omeprazole PK; format: in vivo, human; details: for AUC: human, plasma, oral, read-out: median AUC (25-75%)
Protocol: (§1) Sixteen patients with a history of GERD, all of whom experienced recurrent nighttime reflux for at least three months while taking proton pump inhibitors, were enrolled. […] Ambulatory 24-hour gastric pH was recorded and blood samples taken for PK analysis on days 6-7. Following a seven day washout the patients were crossed over to the alternate treatment. NAB was defined as an intra-gastric pH<4 for more than 1 hour between 22:00 hour and 06:00 hour (10:00 PM and 6:00 AM).

[4] = test system: NAB (intra-gastric pH<4 for more than 1 hour between 22:00 and 06:00); assay: Two-period crossover study in GERD patients: ambulatory 24-hour gastric pH, NAB; format: in vivo, human
Protocol: as §1, with “enrolled. The study was an open label crossover study in which 14 of the 16 patients participated in each of two treatment arms separated by a washout period.” for “enrolled.”

[5] = test system: pH of the stomach; details: cited from earlier work
[6] = test system: basal acid output; details: 20 mg dose, healthy volunteers and patients, cited from earlier work
[7] = pH 11 phosphate buffer; cited from earlier work

SMILES: COc1ccc2nc([S@@+]([O-])Cc3ncc(C)c(OC)c3C)[nH]c2c1 [esomeprazole]
- GERD patients with relief of nocturnal heartburn [1]: 50%

- AUC ([2]; iv, (iv) 20 mg omeprazole delivered to the ascending colon via ENTERION capsule): 242 ± 323 ng·h/mL
- Tmax ([2]; iv, (iv) Colonic): 1.8 h
- bioavailability ([2]; iv, (iv) Colonic, compared to fasted state, read-out: Relative bioavailability): 22 ± 12%
- bioavailability ([2]; oral, 20 mg fed, one of the subjects removed from the analysis, read-out: relative bioavailability in the fed state compared to fasting): 96 ± 7%
- Tmax ([2]; oral, (i) SCR): 4.9 h
- bioavailability ([2]; oral, (i) SCR, fed state, compared to fasted state, read-out: Relative bioavailability): 61 ± 15%
- AUC ([2]; oral, (i) SCR: 20 mg omeprazole divided into 17 doses at 30 minute intervals (8 hr), fed state, n = 7): 568 ± 727 ng·h/mL
- AUC ([2]; oral, (ii) 20 mg omeprazole in the fed state, n = 7): 849 ± 999 ng·h/mL
- Tmax ([2]; oral, (ii) Fed): 3.7 h
- bioavailability ([2]; oral, (ii) Fed, compared to fasted state, read-out: Relative bioavailability): 90 ± 16%
- AUC ([2]; oral, (iii) 20 mg omeprazole in the fasted state, n = 7): 969 ± 1090 ng·h/mL
- bioavailability ([2]; oral, (iii) Fasted (reference arm), read-out: Relative bioavailability): 100%
- bioavailability ([2]; other: ENTERION capsule activated in the terminal ileum, one subject, ENTERION capsule activated in the terminal ileum, read-out: relative bioavailability compared to fasted state): 58%
- patients who did not start absorbing omeprazole until 4-5 hours after the initial dose ([3]; 20 mg at dinner + 20 mg 4 hours later, of the 14 patients (FIG. 7B)): 36%
- blood levels of omeprazole between 2:00 and 3:00 AM ([3]; 40 mg single dose arm, the three patients who experienced NAB): undetectable levels
- time until start of omeprazole absorption after the initial 20 mg dose ([3]; five of the 14 patients of the two dose arm (FIG. 7B)): 4 to 5 h
- AUC ([3]; 20 mg at dinner + 20 mg four hours later for six days, all patients, n = 14): 1860 ng·h/mL
- AUC ([3]; 20 mg at dinner + 20 mg four hours later, patients with NAB (n = 5)): 1670 ng·h/mL
- AUC ([3]; 20 mg at dinner + 20 mg four hours later, patients without NAB (n = 9)): 1910 ng·h/mL
SMILES: COc1ccc2[nH]c([S+]([O-])Cc3ncc(C)c(OC)c3C)nc2c1 (stereo not drawn) [omeprazole, 5-methoxy-2-[[(4-methoxy-3,5-dimethyl-2-pyridinyl)methyl]sulfinyl]-1H-benzimidazole]
- patients who experienced inhibition of NAB ([4]; 20 mg at dinner + 20 mg 4 hours later, the 9 patients with two-dose absorption profile (FIG. 7A)): 100%
- occurrence of NAB ([4]; 40 mg single dose 30 minutes before dinner for six days, 14 patients): Three of the patients experienced NAB
- occurrence of NAB ([4]; two dose arm, nine patients who achieved blood levels from both doses): none experienced NAB
- occurrence of NAB ([4]; two dose arm, the five patients with delayed absorption): All five of those patients experienced NAB
- nighttime pH control of the stomach, time with pH>4 ([5]; 40 mg before breakfast): 24 % of the time
- nighttime pH control of the stomach, time with pH>4 ([5]; 40 mg before dinner): 69 % of the time
- nighttime pH control of the stomach, time with pH>4 ([5]; twice-daily (BID) dosing, 20 mg before breakfast and dinner): 80 % of the time
- decrease in basal acid output ([6]; 2-6 hours after dosing): 78%
- decrease in basal acid output ([6]; 24 hours after dosing): 50%-80%
- stability at pH 11 [7]: stable at pH 11
